Assay [1] addresses T1, Ephrin type-A receptor 8 (Homo sapiens) (UniProt P29322).
T1 sequence (whole entry): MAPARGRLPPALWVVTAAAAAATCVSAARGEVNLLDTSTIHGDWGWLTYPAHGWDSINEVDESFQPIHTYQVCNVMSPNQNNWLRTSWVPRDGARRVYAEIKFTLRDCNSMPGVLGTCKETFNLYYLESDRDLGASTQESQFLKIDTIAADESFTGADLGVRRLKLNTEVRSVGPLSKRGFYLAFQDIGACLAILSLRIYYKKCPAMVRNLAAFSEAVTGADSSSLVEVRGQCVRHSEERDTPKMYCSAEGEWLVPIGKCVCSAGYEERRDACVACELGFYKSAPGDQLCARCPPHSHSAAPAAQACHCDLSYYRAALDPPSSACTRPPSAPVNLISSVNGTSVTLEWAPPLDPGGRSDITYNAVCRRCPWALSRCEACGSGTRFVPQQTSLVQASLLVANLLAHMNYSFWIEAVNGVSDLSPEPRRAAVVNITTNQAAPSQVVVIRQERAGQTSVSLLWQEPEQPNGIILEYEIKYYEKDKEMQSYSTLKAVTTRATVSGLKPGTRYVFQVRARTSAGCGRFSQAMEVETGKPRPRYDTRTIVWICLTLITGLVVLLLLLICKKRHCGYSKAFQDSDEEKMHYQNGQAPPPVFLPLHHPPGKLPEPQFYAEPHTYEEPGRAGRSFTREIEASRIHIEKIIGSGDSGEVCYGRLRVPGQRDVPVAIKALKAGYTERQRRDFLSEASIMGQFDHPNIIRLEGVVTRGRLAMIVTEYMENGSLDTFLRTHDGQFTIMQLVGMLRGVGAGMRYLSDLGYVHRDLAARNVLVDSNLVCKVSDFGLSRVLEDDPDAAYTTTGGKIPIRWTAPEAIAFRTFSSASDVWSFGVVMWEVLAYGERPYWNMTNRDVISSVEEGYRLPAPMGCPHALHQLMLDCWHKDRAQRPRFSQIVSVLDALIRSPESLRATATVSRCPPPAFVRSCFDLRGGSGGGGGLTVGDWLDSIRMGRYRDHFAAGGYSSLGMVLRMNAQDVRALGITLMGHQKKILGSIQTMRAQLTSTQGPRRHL
Description: Selectivity interaction (Kinase panel (Z-LYTE Assay)) EUB0001632a EPHA8. The note with it: at 10 µM.

For assay [2], the target named is Mitogen-activated protein kinase 3 (Homo sapiens, UniProt P27361). Put plainly: Selectivity interaction (Rxn Biology Kinase assay) EUB0001632a MAPK3. The note with it: at 10 µM.
Mitogen-activated protein kinase 3, sequence (P27361 whole entry): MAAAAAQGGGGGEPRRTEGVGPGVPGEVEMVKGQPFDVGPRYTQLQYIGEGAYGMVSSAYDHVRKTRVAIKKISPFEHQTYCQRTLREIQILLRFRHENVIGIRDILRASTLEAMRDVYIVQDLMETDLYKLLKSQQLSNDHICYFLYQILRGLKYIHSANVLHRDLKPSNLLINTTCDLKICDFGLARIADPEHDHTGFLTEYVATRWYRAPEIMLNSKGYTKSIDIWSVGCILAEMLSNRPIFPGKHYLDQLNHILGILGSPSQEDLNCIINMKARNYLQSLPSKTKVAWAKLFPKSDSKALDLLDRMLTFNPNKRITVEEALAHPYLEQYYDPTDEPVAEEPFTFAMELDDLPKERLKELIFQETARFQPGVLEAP
The target of assay [3] is T2, Dual specificity protein kinase CLK3 (Homo sapiens, UniProt P49761). The settings on record: at 10 µM.
T2 sequence (P49761 whole entry, looked up): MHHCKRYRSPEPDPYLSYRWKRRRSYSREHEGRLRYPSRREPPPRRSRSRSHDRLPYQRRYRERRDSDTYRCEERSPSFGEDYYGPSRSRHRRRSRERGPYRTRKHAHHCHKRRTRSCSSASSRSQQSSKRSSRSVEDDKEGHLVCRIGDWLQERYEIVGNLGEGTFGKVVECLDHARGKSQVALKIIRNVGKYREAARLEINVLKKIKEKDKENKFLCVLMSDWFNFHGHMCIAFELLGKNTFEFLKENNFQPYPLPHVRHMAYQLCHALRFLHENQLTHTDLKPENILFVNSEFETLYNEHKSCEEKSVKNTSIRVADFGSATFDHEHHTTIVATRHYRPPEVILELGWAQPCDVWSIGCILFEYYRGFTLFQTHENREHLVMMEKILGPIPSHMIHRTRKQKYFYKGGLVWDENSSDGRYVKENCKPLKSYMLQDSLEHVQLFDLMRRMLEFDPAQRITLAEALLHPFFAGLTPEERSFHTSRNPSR
Assay [4] has as its target Myosin light chain kinase 2, skeletal/cardiac muscle (Homo sapiens) (UniProt Q9H1R3). Description: Selectivity interaction (KinomeScan (DiscoverX)) EUB0000595a MYLK2. The settings on record: at 10 µM.
Assay [5] has as its target T2, Dual specificity protein kinase CLK3. The settings on record: at 10 µM. The source holds these as a separate data set.
Assay [6] concerns the target T3, Rhodopsin kinase GRK7 (Homo sapiens) (UniProt Q8WTQ7).
T3 sequence (whole entry): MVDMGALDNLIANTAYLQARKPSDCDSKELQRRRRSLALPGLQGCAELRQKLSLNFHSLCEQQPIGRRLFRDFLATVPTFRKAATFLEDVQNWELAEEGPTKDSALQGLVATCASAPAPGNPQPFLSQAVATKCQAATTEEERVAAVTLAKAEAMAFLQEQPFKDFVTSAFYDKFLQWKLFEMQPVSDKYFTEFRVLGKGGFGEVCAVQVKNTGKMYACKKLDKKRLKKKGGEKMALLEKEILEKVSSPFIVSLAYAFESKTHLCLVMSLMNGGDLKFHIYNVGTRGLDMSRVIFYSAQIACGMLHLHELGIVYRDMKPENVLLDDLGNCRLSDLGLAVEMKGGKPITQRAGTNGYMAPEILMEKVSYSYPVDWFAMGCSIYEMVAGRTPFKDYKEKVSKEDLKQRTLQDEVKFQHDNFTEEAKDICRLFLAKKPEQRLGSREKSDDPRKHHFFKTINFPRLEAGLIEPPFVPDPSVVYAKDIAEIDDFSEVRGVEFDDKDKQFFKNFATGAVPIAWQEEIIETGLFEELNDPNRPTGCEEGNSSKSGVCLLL
Description: Selectivity interaction (SelectScreen profiling (Invitrogen)) EUB0000607a GRK7. The note with it: at 2 µM.

Assay [7] concerns the target Proto-oncogene tyrosine-protein kinase ROS (Homo sapiens) (UniProt P08922). Description: Selectivity interaction (KinomeScan (DiscoverX)) EUB0000607a ROS1. The note with it: at 10 µM.
Assay [8] has as its target Cyclin-dependent kinase 16 (Homo sapiens) (UniProt Q00536). Description: Selectivity interaction (KinomeScan (DiscoverX)) EUB0000045b CDK16.
The target of assay [9] is Ribosomal protein S6 kinase alpha-1 (Homo sapiens, UniProt Q15418). Description: Selectivity interaction (Millipore kinase profiler) EUB0000124b RPS6KA1. The settings on record: at 10 µM.
Ribosomal protein S6 kinase alpha-1, sequence (Q15418 whole entry): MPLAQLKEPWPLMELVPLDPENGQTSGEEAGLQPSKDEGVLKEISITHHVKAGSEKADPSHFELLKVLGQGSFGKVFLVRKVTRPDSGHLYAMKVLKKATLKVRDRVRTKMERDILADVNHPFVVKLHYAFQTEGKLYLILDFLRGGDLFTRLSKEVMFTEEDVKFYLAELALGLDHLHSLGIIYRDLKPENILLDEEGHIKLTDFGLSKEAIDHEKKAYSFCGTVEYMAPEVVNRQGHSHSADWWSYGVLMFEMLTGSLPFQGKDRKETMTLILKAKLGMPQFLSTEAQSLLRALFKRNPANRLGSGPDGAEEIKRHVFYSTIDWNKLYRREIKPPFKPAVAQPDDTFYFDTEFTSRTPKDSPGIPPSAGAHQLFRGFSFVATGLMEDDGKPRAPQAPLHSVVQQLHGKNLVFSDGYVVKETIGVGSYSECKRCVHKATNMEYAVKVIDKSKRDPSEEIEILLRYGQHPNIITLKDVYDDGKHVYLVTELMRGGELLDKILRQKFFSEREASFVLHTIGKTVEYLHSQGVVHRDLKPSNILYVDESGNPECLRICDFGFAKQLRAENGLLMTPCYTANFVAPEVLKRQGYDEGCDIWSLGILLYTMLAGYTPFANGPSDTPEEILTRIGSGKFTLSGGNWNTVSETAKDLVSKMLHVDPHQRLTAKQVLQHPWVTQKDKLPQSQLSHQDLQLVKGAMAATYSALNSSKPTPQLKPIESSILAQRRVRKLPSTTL
Assay [10] concerns the target T4, Serine/threonine-protein kinase RIO3 (Homo sapiens) (UniProt O14730).
T4 sequence (whole entry): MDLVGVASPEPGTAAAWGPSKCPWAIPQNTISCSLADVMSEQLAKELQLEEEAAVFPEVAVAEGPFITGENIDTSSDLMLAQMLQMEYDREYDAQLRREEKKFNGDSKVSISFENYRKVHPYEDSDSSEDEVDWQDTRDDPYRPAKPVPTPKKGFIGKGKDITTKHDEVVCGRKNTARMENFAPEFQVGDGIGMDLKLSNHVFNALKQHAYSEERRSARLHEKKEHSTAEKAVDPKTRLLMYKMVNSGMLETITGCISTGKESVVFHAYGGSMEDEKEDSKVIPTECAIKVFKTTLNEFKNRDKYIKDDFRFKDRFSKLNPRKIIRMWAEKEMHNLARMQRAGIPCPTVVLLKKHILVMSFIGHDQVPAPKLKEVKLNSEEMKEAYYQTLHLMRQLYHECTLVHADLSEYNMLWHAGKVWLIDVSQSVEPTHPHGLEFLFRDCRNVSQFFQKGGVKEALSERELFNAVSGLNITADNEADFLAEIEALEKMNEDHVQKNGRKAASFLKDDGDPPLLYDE
Put plainly: Selectivity interaction (KinomeScan (DiscoverX)) EUB0000229b RIOK3. The note with it: at 10 µM.

Assay [11] has as its target Serine/threonine-protein kinase 32B (Homo sapiens) (UniProt Q9NY57). Description: Selectivity interaction (KinomeScan (DiscoverX)) EUB0000229b STK32B. The note with it: at 10 µM.

Cyclin-dependent kinase 16 (Homo sapiens), sequence (Q00536 whole entry): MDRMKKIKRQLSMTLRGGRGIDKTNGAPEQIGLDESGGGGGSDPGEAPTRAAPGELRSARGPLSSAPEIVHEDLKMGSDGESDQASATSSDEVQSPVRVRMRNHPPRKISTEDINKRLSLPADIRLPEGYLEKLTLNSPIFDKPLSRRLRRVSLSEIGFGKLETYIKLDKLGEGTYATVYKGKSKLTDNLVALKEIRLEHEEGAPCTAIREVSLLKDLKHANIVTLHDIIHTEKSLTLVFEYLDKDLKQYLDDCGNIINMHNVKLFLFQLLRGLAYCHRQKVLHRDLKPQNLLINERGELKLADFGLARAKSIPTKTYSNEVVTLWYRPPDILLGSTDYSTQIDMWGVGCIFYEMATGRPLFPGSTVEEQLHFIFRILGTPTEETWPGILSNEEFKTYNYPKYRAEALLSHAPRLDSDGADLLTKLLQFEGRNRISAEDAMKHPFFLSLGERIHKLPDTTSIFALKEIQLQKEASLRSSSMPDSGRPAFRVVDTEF
Myosin light chain kinase 2, skeletal/cardiac muscle (Homo sapiens), sequence (Q9H1R3 whole entry): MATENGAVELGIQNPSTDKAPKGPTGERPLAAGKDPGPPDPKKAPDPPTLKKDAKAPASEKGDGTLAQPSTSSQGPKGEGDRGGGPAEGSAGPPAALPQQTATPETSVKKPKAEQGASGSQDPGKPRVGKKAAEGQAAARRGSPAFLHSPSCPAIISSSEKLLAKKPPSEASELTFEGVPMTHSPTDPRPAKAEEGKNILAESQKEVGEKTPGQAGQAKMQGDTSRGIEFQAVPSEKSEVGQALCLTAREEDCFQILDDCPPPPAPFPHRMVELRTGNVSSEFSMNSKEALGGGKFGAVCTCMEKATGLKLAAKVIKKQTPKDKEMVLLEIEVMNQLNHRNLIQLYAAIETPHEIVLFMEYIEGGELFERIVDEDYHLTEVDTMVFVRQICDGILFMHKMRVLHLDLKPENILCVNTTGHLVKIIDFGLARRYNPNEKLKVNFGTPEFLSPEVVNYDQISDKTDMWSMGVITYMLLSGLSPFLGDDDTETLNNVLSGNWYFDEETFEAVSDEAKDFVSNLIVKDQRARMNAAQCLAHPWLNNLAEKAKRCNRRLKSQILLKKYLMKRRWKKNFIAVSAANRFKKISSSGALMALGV
Serine/threonine-protein kinase 32B (Homo sapiens), sequence (Q9NY57 whole entry): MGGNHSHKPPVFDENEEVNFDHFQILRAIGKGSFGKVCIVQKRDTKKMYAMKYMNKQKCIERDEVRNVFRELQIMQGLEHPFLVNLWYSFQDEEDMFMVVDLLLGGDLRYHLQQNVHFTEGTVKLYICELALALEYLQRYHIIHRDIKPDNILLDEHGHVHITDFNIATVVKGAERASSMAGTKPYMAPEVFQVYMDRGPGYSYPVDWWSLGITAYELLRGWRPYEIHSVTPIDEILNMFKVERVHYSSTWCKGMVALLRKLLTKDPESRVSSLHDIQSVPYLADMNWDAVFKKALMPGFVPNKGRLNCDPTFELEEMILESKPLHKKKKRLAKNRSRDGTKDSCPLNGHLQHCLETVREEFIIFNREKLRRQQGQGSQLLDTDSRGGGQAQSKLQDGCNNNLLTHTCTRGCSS

Turning to `Cn1cc(-n2cnc3c(NCc4nc5cc(Cl)c(Cl)cc5[nH]4)nc(N4CCOCC4)nc32)cn1`, the % of control in assay [1] was -0.692%. In addition, the % of inhibition in assay [2] was -5.84%.
For the compound `COCC(=O)NC/C=C/c1ccc2ncnc(Nc3ccc(Oc4ccc(C)nc4)c(C)c3)c2c1` [CP-724714], the % of control in assay [3] and in assay [4] was 100% in each case.
For the compound `CCN(CC)CCCCNc1ncc2cc(-c3cc(OC)cc(OC)c3)c(NC(=O)NC(C)(C)C)nc2n1`, the % of control in assay [5] came out at 100%.
Consider `CNC(=O)Nc1ccc(-c2nc(N3CC4CCC(C3)O4)c3cnn(C4CCC5(CC4)OCCO5)c3n2)cc1`, for which the % of inhibition in assay [6] was 7%. Also, the % of control in [7] was determined as 81%.
As for `C=CC(=O)Nc1cc(-n2c(=O)ccc3cnc4ccc(-c5ccc(NS(C)(=O)=O)cc5)cc4c32)ccc1C`, the % of control in [8] (at 1 µM) and in [8] (at 10 µM) was 100% each time.
On to `CC(=O)Nc1cccc(-n2c(=O)n(C3CC3)c(=O)c3c(Nc4ccc(I)cc4F)n(C)c(=O)c(C)c32)c1`, for which the % of control in assay [9] is 116%.
`COc1cc(N(C)c2ccnc3ccc(C(F)(F)F)cc23)cc(OC)c1OC`: the % binding in [10] worked out at 90%; in assay [11], 100%.

For the origin of these results see ChEMBL document CHEMBL5465560, “Selectivity Literature for EUbOPEN Chemogenomic Library” (2024).
